Experimental data as given in US11225642B2, “Method for producing renal progenitor cells” (KYOTO UNIVERSITY, priority 2013, dated 2022).

Tested on: OSR1-GFP & SIX2-tdTomato reporter human iPS cell line
Assay: SIX2-positive cell induction method 1, SIX2-tdTomato-positive cell rate by flow cytometer
Format: cell-based
Details: induction method 1; stage 3 medium with 5 ng/ml TGFβ1 and 0.5 μM Dorsomorphin, 15 to 22 days
Description: The OSR1-GFP & SIX2-tdTomato reporter human iPS cell line obtained by the method in Example 1 was cultured at 37° C. in a 2-5% CO2 atmosphere to become confluent on 10-cm dishes containing a primate ES/iPS cell medium (ReproCELL) supplemented with 5 ng/ml bFGF (Wako) with the use of SNL cells (McMahon, A. P. and Bradley, A. (1990) Cell 62; 1073-1085) (the cells being treated with 15.5 μg/ml mitomycin (Kyowa Hakko Kirin Co., Ltd.) for 2 to 3 hours and seeded at a density of 3×10^5 cells/10-cm dish) as feeder cells. A CTK solution (2.5% Trypsin (Invitrogen), 1 mg/ml Collagenase IV (Invitrogen), 0.1 M CaCl2, 10 mL KnockOut SR (Invitrogen), and 29.5 mL H2O) was added to dissociate the cells. After removal of the feeder cells, the dissociated cells were suspended in a DMEM/F12 medium containing 1 μM CHIR99021 (Stemgent, 04-0004), 100 ng/ml Activin A (R&D Systems, 338-AC), 1% GlutaMAX (100×) (Invitrogen, 35050-061), 2% FBS (Hyclone), and 0.5% PenStrep (Invitrogen, 10565). Then, the cell suspensions were transferred to a low cell binding plate (LOW CELL BIND 6 WELL DISH (Nunc, 145383)) such that each well contained one-third to one-sixth of the cell suspension obtained from the 10-cm dish, followed by suspension culture at 37° C. in a 5% CO2 atmosphere for 2 days.
The cell mass obtained at stage 1 was transferred to a 24-well or 6-well dish coated with Matrigel (BD Matrigel Matrix Growth Factor Reduced (BD Biosciences, 356230) (the dish being coated with 0.2 mg/ml Matrigel in DMEM and treated at 37° C. for 30 minutes or at 4° C. overnight) or a 24-well or 6-well dish coated with Synthemax (Corning Synthemax II-SC Substrate (Corning, 3535XX1)) (the dish being coated with Synthemax diluted 40-fold with sterile water and treated at room temperature for 2 hours). The medium was exchanged with a DMEM/F12 medium containing 1 μM CHIR99021, 100 ng/ml BMP7 (Recombinant human BMP7 (R&D Systems, 3534-BP)), 0.1% 2-mercaptoethanol (1000×) (Invitrogen, 21985), 1% GlutaMAX (100×), 10% KnockOut SR (Invitrogen), 0.1 mM MEM NEAA (Invitrogen, 11140), and 0.5% PenStrep, followed by adhesion culture at 37° C. in a 5% CO2 atmosphere for 3 to 6 days. In the case of culture for 3 days or more, the medium was exchanged every 3 days with a medium having the same conditions.
The medium was removed from the cells obtained at stage 2. The cells were washed with PBS and then the medium was exchanged with a DMEM/F12 medium containing 5 ng/ml TGFβ1 (Peprotech, 100-21C), 0.5 μM Dorsomorphin (AMPK Inhibitor, Compound C (Merck, 171260)), 0.1% 2-mercaptoethanol (1000×), 1% GlutaMAX (100×), 10% KnockOut SR, 0.1 mM MEM NEAA, and 0.5% PenStrep, followed by suspension culture at 37° C. in a 5% CO2 atmosphere for 15 to 22 days. In this case, the medium was exchanged every 3 days with a medium having the same conditions.
At stage 3 of SIX2-positive cell induction method 1, Dorsomorphin was replaced with 100 ng/ml Noggin (Peprotech), 0.5 μM LDN193189 (Axon MedChem, 1509), or 0.5 μM DMH1 (Tocris, 4126) for differentiation induction in the aforementioned manner.
At stage 3 of SIX2-positive cell induction method 1, TGFβ1 was exchanged with 50 μM IDE1 (Tocris) or 50 μM IDE2 (Tocris) for differentiation induction in the aforementioned manner.
At stage 3 of SIX2-positive cell induction method 1, Dorsomorphin was replaced with 0.5 μM LDN193189, while TGFβ1 with 10 ng/ml TGFβ2 (Peprotech) or 10 ng/ml TGFβ3 (R&D), for differentiation induction in the aforementioned manner. As a result, the SIX2-positive cell rates were 8.6% and 9.3%, respectively (FIGS. 2G and 2H).

Molecule | SIX2-tdTomato-positive cell rate [%]
c1cc(-c2cnn3cc(-c4ccc(OCCN5CCCCC5)cc4)cnc23)ccn1 [Dorsomorphin, 6-[4-(2-piperidin-1-yl-ethoxy)phenyl]-3-pyridin-4-yl-pyrazolo[1,5-a]pyrimidine] | 21.5±2.0
TGFβ1: TGFβ signaling activator protein (Peprotech) | 21.5±2.0
